We go through 20 compounds from US20080221083A1, “Heterobicyclic metalloprotease inhibitors” (priority 2006, published 2008).

SMILES strings stand for the structures. pIC50: −log10 of the molar value.

For assay [1], the target named is T1, catalytic domain of MMP-3 enzyme (Homo sapiens, UniProt P08254).
T1 construct: the catalytic domain of MMP-3 enzyme (Biomol, Cat. No. SE-109); purchased Biomol SE-109
In words: Assay for determining MMP-3 inhibition. The class given is biochemical. Particulars: fluorescent substrate NFF-3, pH 6.0; read-out: Summary of MMP-3 Activity for Compounds (IC50 MMP-3), Group. How it is done:
Assay for Determining MMP-3 Inhibition
The typical assay for MMP-3 activity is carried out in assay buffer comprised of 50 mM MES, pH 6.0, 10 mM CaCl2 and 0.05% Brij-35. Different concentrations of tested compounds are prepared in assay buffer in 50 μl aliquots. 10 μl of a 100 nM stock solution of the catalytic domain of MMP-3 enzyme (Biomol, Cat. No. SE-109) is added to the compound solution. The mixture of enzyme and compound in assay buffer is thoroughly mixed and incubated for 10 min at room temperature. Upon the completion of incubation, the assay is started by addition of 40 μl of a 12.5 μM stock solution of NFF-3 fluorescent substrate (Calbiochem, Cat. No. 480455). The time-dependent increase in fluorescence is measured at the 330 nm excitation and 390 nm emission by an automatic plate multireader. The IC50 values are calculated from the initial reaction rates.

Assay [2] has as its target T2, catalytic domain of MMP-13 enzyme (Homo sapiens, UniProt P45452).
T2 construct: catalytic domain of MMP-13 enzyme (produced by Alantos or commercially available from Invitek (Berlin), Cat. No. 30100812); purchased Invitek (Berlin) 30100812
In words: Assay for determining MMP-13 inhibition. The assay is classed as biochemical. Particulars: MMP-13 fluorescent substrate, pH 7.5; read-out: Summary of MMP-13 Activity for Compounds (IC50 MMP-13), Group. The procedure:
Assay for Determining MMP-13 Inhibition
The typical assay for MMP-13 activity is carried out in assay buffer comprised of 50 mM Tris, pH 7.5, 150 mM NaCl, 5 mM CaCl2 and 0.05% Brij-35. Different concentrations of tested compounds are prepared in assay buffer in 50 μl aliquots. 10 μl of a 50 nM stock solution of catalytic domain of MMP-13 enzyme (produced by Alantos or commercially available from Invitek (Berlin), Cat. No. 30100812) is added to the compound solution. The mixture of enzyme and compound in assay buffer is thoroughly mixed and incubated for 10 min at room temperature. Upon the completion of incubation, the assay is started by addition of 40 μl of a 12.5 μM stock solution of MMP-13 fluorescent substrate (Calbiochem, Cat. No. 444235). The time-dependent increase in fluorescence is measured at the 320 nm excitation and 390 nm emission by automatic plate multireader. The IC50 values are calculated from the initial reaction rates.

T1 sequence (P08254 100-272 limits assumed): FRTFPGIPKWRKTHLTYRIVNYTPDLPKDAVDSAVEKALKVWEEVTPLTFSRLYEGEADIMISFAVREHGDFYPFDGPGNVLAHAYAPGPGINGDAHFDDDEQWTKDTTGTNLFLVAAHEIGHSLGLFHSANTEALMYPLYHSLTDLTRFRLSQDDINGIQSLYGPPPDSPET

In the case of `CCCN(CCC)C(=O)c1c[nH]c2c(C(=O)NCc3ccc4c(c3)NC(=O)CO4)ncnc12` [Example 48], in assay [1], the pIC50 is 7.00 to 8.52.

As for `O=C1COc2ccc(CNC(=O)c3ncnc4c(C(=O)NCc5ccccc5)c[nH]c34)cc2N1` [Example 34], the pIC50 was 7.00 to 8.52 in assay [1] and 4.70 to 7.00 in assay [2].

With `CCOC(=O)CC1C(=O)NCCN1C(=O)c1c[nH]c2c(C(=O)NCc3ccc4c(c3)NC(=O)CO4)ncnc12` (stereo not shown) [Example 63], the pIC50 in assay [1] was 4.70 to 7.00.

For `CC(C)NC(=O)c1c[nH]c2c(C(=O)NCc3ccc4c(c3)NC(=O)CO4)ncnc12` [Example 32], the pIC50 in assay [1] was 4.70 to 7.00.

For `O=C1CN(C(=O)c2c[nH]c3c(C(=O)NCc4ccc5c(c4)NC(=O)CO5)ncnc23)CCN1` [Example 62], the pIC50 was 7.00 to 8.52 in assay [1] and 4.70 to 7.00 in assay [2].

On to `O=C(NCc1ccccc1)c1c[nH]c2c(C(=O)NCc3ccc(F)cc3)ncnc12` [Example 6], for which the pIC50 in assay [1] was 7.00 to 8.52; in assay [2] it was 4.70 to 7.00.

For `COC(=O)[C@@H]1C[C@@H](O)CN1C(=O)c1c[nH]c2c(C(=O)NCc3ccc4c(c3)NC(=O)CO4)ncnc12` [Example 52], the pIC50 in assay [1] was 7.00 to 8.52; in assay [2], 4.70 to 7.00.

For `CCCCN(CC)C(=O)c1c[nH]c2c(C(=O)NCc3ccc4c(c3)NC(=O)CO4)ncnc12` [Example 47], the pIC50 in assay [1] is 7.00 to 8.52.

As for `C[C@@H](NC(=O)c1c[nH]c2c(C(=O)NCc3ccc4c(c3)NC(=O)CO4)ncnc12)c1ccccc1` [Example 60], in assay [1], the pIC50 is 4.70 to 7.00.

In the case of `C[C@H](NC(=O)c1c[nH]c2c(C(=O)NCc3ccc4c(c3)NC(=O)CO4)ncnc12)c1ccccc1` [Example 61], the pIC50 in assay [1] is 4.70 to 7.00.

Consider `COc1cccc(CNC(=O)c2c[nH]c3c(C(=O)NCc4ccc5c(c4)NC(=O)CO5)ncnc23)c1` [Example 45], for which the pIC50 in assay [1] and in assay [2] was 4.70 to 7.00 each time.

In the case of `O=C1COc2ccc(CNC(=O)c3ncnc4c(C(=O)N5CCC(O)CC5)c[nH]c34)cc2N1` [Example 42], the pIC50 in assay [1] is 4.70 to 7.00.

With `CC(C)(C)OC(=O)N1CC2CC1CN2C(=O)c1c[nH]c2c(C(=O)NCc3ccc4c(c3)NC(=O)CO4)ncnc12` (stereo not shown) [Example 50], the figures for the pIC50 in assay [1] and in assay [2] were 7.00 to 8.52 and 4.70 to 7.00, respectively.

Regarding `CNC(=O)c1c[nH]c2c(C(=O)NCc3ccc4c(c3)NC(=O)CO4)ncnc12` [Example 41], the pIC50 in assay [1] is 4.70 to 7.00.

With `CCC(CC)NC(=O)c1c[nH]c2c(C(=O)NCc3ccc4c(c3)NC(=O)CO4)ncnc12` [Example 31], the pIC50 in assay [1] and in assay [2] was 4.70 to 7.00 in each case.

Turning to `O=C1COc2ccc(CNC(=O)c3ncnc4c(C(=O)NC5CCCC5)c[nH]c34)cc2N1` [Example 33], in assay [1], the negative-log IC50 (pIC50) was 7.00 to 8.52.

`CC(C)(CO)NC(=O)c1c[nH]c2c(C(=O)NCc3ccc4c(c3)NC(=O)CO4)ncnc12` [Example 51]: the values for the pIC50 in assay [1] and in assay [2] were 7.00 to 8.52 and 4.70 to 7.00, respectively.

Turning to `CN(Cc1ccccc1)C(=O)c1c[nH]c2c(C(=O)NCc3ccc4c(c3)NC(=O)CO4)ncnc12` [Example 46], the pIC50 was 7.00 to 8.52 in assay [1] and 4.70 to 7.00 in assay [2].

For `O=C1COc2ccc(CNC(=O)c3ncnc4c(C(=O)NCC5(O)CCCCC5)c[nH]c34)cc2N1` [Example 40], the negative logarithm of the IC50 (pIC50) in assay [1] and in assay [2] was 4.70 to 7.00 throughout.

Regarding `O=C1COc2ccc(CNC(=O)c3ncnc4c(C(=O)NCC5CCCCC5)c[nH]c34)cc2N1` [Example 35], the negative logarithm of the IC50 (pIC50) in assay [1] is 7.00 to 8.52; in assay [2], 4.70 to 7.00.

The pIC50 is the IC50 on a negative log10 scale, so that one unit is a factor of ten.
